Results: ChEMBL document CHEMBL5038644 (J Med Chem, 2022)
pEC50, pKi: −log10 of the molar value. The source made the active and inactive calls. The rule behind the calls is not given here. Bridge positions count the residues as written; N and C are the ends. Square brackets hold non-standard residues; d marks the D form. Peptide text beside a SMILES is read from it. AllylGly = C=CC[C@H](N)C(=O)O; Nle = CCCC[C@H](N)C(=O)O; Ava = NCCCCC(=O)O

Experiments:
[1] = biological target: T1, Apelin receptor (Homo sapiens) (UniProt P35414); assay: Agonist activity at human APJ expressed in HEK293 cells assessed as maximal efficacy for dissociation of G alphai1 from the G beta gamma subunit by BRET-based G protein dissociation assay relative to control; format: functional, cell-based; details: filed as agonist
T1 sequence (whole entry): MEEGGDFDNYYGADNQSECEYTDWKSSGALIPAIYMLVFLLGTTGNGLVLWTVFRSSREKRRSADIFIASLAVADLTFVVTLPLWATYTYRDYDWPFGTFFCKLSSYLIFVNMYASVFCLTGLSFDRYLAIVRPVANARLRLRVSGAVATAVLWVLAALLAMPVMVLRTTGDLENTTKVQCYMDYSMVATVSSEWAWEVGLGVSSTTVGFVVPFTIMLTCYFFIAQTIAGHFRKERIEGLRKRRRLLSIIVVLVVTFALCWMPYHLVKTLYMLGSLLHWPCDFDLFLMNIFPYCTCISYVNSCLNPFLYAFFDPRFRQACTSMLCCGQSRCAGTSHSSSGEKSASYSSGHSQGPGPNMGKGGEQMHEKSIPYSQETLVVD

[2] = biological target: T1, Apelin receptor (Homo sapiens); assay: Agonist activity at human APJ expressed in HEK293 cell membrane assessed as maximal efficacy for recruitment of beta-arrestin2 to receptor by BRET-based beta-arrestin2 assay relative to control; format: functional; details: filed as agonist
[3] = biological target: T1, Apelin receptor (Homo sapiens); assay: Agonist activity at human APJ expressed in HEK293 cell membrane assessed as maximal efficacy for recruitment of PDZ-RhoGEF Galphai1 to cell membrane by BRET-based G protein dissociation assay relative to control; format: functional
[4] = test system: Rattus norvegicus; assay: Cardioprotective activity in Sprague-Dawley rat assessed as effect on cardiac output in sprague-dawley rat at 0.2 micromol/kg, sc after 3 hrs by echocardiography; format: functional, organism-based; details: dose 0.2 µmol/kg
[5] = Stability in Sprague-Dawley rat plasma assessed as half life measured upto 24 hrs by UPLC-MS analysis; format: ADME, cell-free
[6] = Stability in Sprague-Dawley rat plasma at 3 mg/kg, iv upto 2 hrs by LC/MS-MS analysis; format: ADME, organism-based; details: in vivo
[7] = test system: Rattus norvegicus; assay: Cardioprotective activity in Sprague-Dawley rat assessed as effect on cardiac output in sprague-dawley rat at 2 micromol/kg, sc after 6 hrs by echocardiography relative to control; format: functional; details: dose 2 µmol/kg
[8] = test system: Rattus norvegicus; assay: Hypotensive effect in Sprague-Dawley rat assessed as decrease in blood pressure at 19.6 to 65 nmol/kg, iv relative to control; format: functional; details: dose 19.6-65 nmol/kg
[9] = test system: Rattus norvegicus; assay: Cardioprotective activity in Sprague-Dawley rat assessed as effect on left ventricular fractional shortening at 0.2 micromol/kg, sc after 3 hrs by echocardiography; format: functional, organism-based; details: dose 0.2 µmol/kg
[10] = test system: Rattus norvegicus; assay: Cardioprotective activity in Sprague-Dawley rat assessed as effect on left ventricular fractional shortening at 2 micromol/kg, sc after 3 hrs by echocardiography relative to control; format: functional; details: dose 2 µmol/kg
[11] = test system: Rattus norvegicus; assay: Cardioprotective activity in Sprague-Dawley rat assessed as effect on left ventricular fractional shortening at 2 micromol/kg, sc after 6 hrs by echocardiography relative to control; format: functional; details: dose 2 µmol/kg
[12] = test system: Rattus norvegicus; assay: Cardioprotective activity in Sprague-Dawley rat assessed as effect on cardiac output in sprague-dawley rat at 2 micromol/kg, sc after 3 hrs by echocardiography relative to control; format: functional; details: dose 2 µmol/kg
[13] = AUC in Sprague-Dawley rat plasma at 3 mg/kg, iv by LC/MS-MS analysis; format: ADME, organism-based; parameters: dose 3 mg/kg; details: in vivo
[14] = biological target: T2, Apelin receptor (Homo sapiens, UniProt P35414); assay: Displacement of [125I]-[Nle75,Tyr77][Pyr1]-Ape13 from YFP-tagged human APJ expressed in HEK293 cell membranes assessed as inhibition constant incubated for 1 hr by scintillation counting method
T2 sequence (P35414 whole entry): T1 sequence (whole entry)

[15] = biological target: T2, Apelin receptor; assay: Agonist activity at human APJ expressed in HEK293 cell membrane assessed as recruitment of PDZ-RhoGEF Galpha12 to cell membrane by BRET-based G protein dissociation assay; format: functional

Row | SMILES | Emax [1] | Emax [2] | Emax ([3]; filed as agonist) | pKi [14] | also measured
1 | CC(C)C[C@@H]1NC(=O)[C@H](CCCNC(=N)N)NC(=O)[C@@H](N)C/C=C\C[C@@H](C(=O)N[C@@H](CCCCN)C(=O)NCC(=O)N2CCC[C@H]2C(=O)N[C@H](Cc2ccc(O)cc2)C(=O)O)NC(=O)[C@H](CO)NC1=O | 100% | 54% | 45% | – | –
2 | CC(C)C[C@@H]1NC(=O)[C@H](CCCNC(=N)N)NC(=O)[C@@H](N)C/C=C\C[C@@H](C(=O)N[C@@H](CCCCN)C(=O)NCC(=O)N2CCC[C@H]2C(=O)N[C@H](Cc2ccc3ccccc3c2)C(=O)O)NC(=O)[C@H](CO)NC1=O | 105% | 55% | 40% | – | Activity [4]: Active; half-life [5]: > 1440 min; Stability [6]: Stable; Activity [7]: 16%; Activity [8]: inactive; Activity [9]: Active; Activity [10]: 22%; Activity [11]: 17%; Activity [12]: 22%; AUC [13]: 8.8 mg·min/mL
3 | CCCC[C@H](NC(=O)[C@@H]1CCCN1C(=O)CNC(=O)[C@H](CCCCN)NC(=O)[C@@H]1Cc2cncn2C/C=C/C[C@H](NC(=O)[C@H](CCCNC(=N)N)NC(=O)[C@@H]2CCC(=O)N2)C(=O)N[C@@H](CCCNC(=N)N)C(=O)N[C@@H](CC(C)C)C(=O)N[C@@H](CO)C(=O)N1)C(=O)N1CCC[C@H]1C(=O)N[C@@H](Cc1ccccc1)C(=O)O | 99% | 115% | 98% | – | Activity [8]: -36 mmHg
4 | CCCC[C@H](NC(=O)[C@@H]1CCCN1C(=O)CCCCNC(=O)[C@@H]1C/C=C\C[C@H](N)C(=O)N[C@@H](CCCNC(=N)N)C(=O)N[C@@H](CC(C)C)C(=O)N[C@@H](CO)C(=O)N1)C(=O)O (H-[AllylGly]RLS[AllylGly][Ava]P[Nle]-OH; staple (Z) 1-5) | – | – | – | < 5.00 | –
5 | CCCC[C@H](NC(=O)[C@@H]1CCCN1C(=O)CNC(=O)[C@H](CCCCN)NC(=O)[C@@H]1C/C=C\C[C@H](NC(=O)[C@H](CCCNC(=N)N)NC(=O)[C@@H]2CCC(=O)N2)C(=O)N[C@@H](CCCNC(=N)N)C(=O)N[C@@H](CC(C)C)C(=O)N[C@@H](CO)C(=O)N1)C(=O)N1CCC[C@H]1C(=O)N[C@@H](Cc1ccccc1)C(=O)O | 101% | 98% | 98% | – | –
6 | CC(C)C[C@@H]1NC(=O)[C@H](CCCNC(=N)N)NC(=O)[C@@H](N)C/C=C\C[C@@H](C(=O)N[C@@H](CCCCN)C(=O)NCC(=O)N2CCC[C@H]2C(=O)N[C@H](Cc2ccc(OCc3ccccc3)cc2)C(=O)O)NC(=O)[C@H](CO)NC1=O | 104% | 78% | 48% | – | –
7 | CC(C)C[C@@H]1NC(=O)[C@H](CCCNC(=N)N)NC(=O)[C@@H](N)C/C=C\C[C@@H](C(=O)N[C@@H](CCCCN)C(=O)NCC(=O)N2CCC[C@H]2C(=O)N[C@H](Cc2cccc3ccccc23)C(=O)O)NC(=O)[C@H](CO)NC1=O | 103% | 70% | – | – | Stability [6]: Stable; Activity [8]: -24 mmHg; Activity [9]: Active; Activity [10]: 22%; Emax [3]: 3%; Activity [12]: 22%; AUC [13]: 1.33 mg·min/mL
8 | CCCC[C@H](NC(=O)[C@@H]1CCCN1C(=O)CNC(=O)[C@H](CCCCN)NC(=O)[C@@H]1CCN(S(=O)(=O)c2ccccc2[N+](=O)[O-])C/C=C/C[C@H](N)C(=O)N[C@@H](CCCNC(=N)N)C(=O)N[C@@H](CC(C)C)C(=O)N[C@@H](CO)C(=O)N1)C(=O)N1CCC[C@H]1C(=O)N[C@@H](Cc1ccccc1)C(=O)O | 106% | 82% | 93% | – | –
9 | CC(C)C[C@@H]1NC(=O)[C@H](CCCNC(=N)N)NC(=O)[C@@H](N)C/C=C\C[C@@H](C(=O)N[C@@H](CCCCN)C(=O)NCC(=O)N2CCC[C@H]2C(=O)N[C@@H](C)C(=O)O)NC(=O)[C@H](CO)NC1=O (H-[AllylGly]RLS[AllylGly]KGPA-OH; staple (Z) 1-5) | – | – | – | < 5.00 | –
10 | CCCC[C@H](NC(=O)[C@@H]1CCCN1C(=O)CNC(=O)[C@H](CCCCN)NC(=O)[C@@H]1C/C=C\C[C@H](NC(=N)N)C(=O)N[C@@H](CCCNC(=N)N)C(=O)N[C@@H](CC(C)C)C(=O)N[C@@H](CO)C(=O)N1)C(=O)N1CCC[C@H]1C(=O)N[C@@H](Cc1ccccc1)C(=O)O | 103% | 92% | 105% | – | –
11 | CC(C)C[C@@H]1NC(=O)[C@H](CCCNC(=N)N)NC(=O)[C@@H](N)C/C=C\C[C@@H](C(=O)N[C@@H](CCCCN)C(=O)O)NC(=O)[C@H](CO)NC1=O (H-[AllylGly]RLS[AllylGly]K-OH; staple (Z) 1-5) | – | – | – | < 5.00 | –
12 | CCCC[C@H](NC(=O)[C@@H]1CCCN1C(=O)CNC(=O)[C@H](CCCCN)NC(=O)[C@@H]1CC(=O)NCCCC[C@H](NC(=O)[C@H](CCCNC(=N)N)NC(=O)[C@@H]2CCC(=O)N2)C(=O)N[C@@H](CCCNC(=N)N)C(=O)N[C@@H](CC(C)C)C(=O)N[C@@H](CO)C(=O)N1)C(=O)N1CCC[C@H]1C(=O)N[C@@H](Cc1ccccc1)C(=O)O (HELM PEPTIDE1{[Glp].R.K.R.L.S.D.K.G.P.[Nle].P.F}$PEPTIDE1,PEPTIDE1,3:R3-7:R3$$$V2.0) | – | – | – | 7.41 | –
13 | CCCC[C@H](NC(=O)[C@@H]1CCCN1C(=O)CNC(=O)[C@H](CCCCN)NC(=O)[C@@H]1C/C=C\C[C@H](N)C(=O)N[C@@H](CCCNC(=N)N)C(=O)N[C@@H](CC(C)C)C(=O)N[C@@H](CO)C(=O)N1)C(=O)N1CCC[C@H]1C(=O)N[C@@H](Cc1ccccc1)C(=O)O | 100% | 98% | 98% | – | Activity [8]: -27 mmHg
14 | CCCC[C@H](NC(=O)[C@@H]1CCCN1C(=O)CNC(=O)[C@H](CCCCN)NC(=O)[C@@H]1CCN(S(=O)(=O)c2ccccc2[N+](=O)[O-])C/C=C/C[C@H](NC(=O)[C@H](CCCNC(=N)N)NC(=O)[C@@H]2CCC(=O)N2)C(=O)N[C@@H](CCCNC(=N)N)C(=O)N[C@@H](CC(C)C)C(=O)N[C@@H](CO)C(=O)N1)C(=O)N1CCC[C@H]1C(=O)N[C@@H](Cc1ccccc1)C(=O)O | 102% | 98% | 92% | – | –
15 | CCCC[C@H](NC(=O)[C@@H]1CCCN1C(=O)CNC(=O)[C@H](CCCCN)NC(=O)[C@@H]1C/C=C\C[C@H](N)C(=O)N[C@@H](CCCNC(=N)N)C(=O)N[C@@H](CC(C)C)C(=O)N[C@@H](CO)C(=O)N1)C(=O)O | 99% | 69% | 59% | – | Activity [8]: -13 mmHg
16 | CCCC[C@H](NC(=O)[C@@H]1CCCN1C(=O)CNC(=O)[C@H](CCCCN)NC(=O)[C@@H]1CCCC[C@H](NC(=O)[C@H](CCCNC(=N)N)NC(=O)[C@@H]2CCC(=O)N2)C(=O)N[C@@H](CCCNC(=N)N)C(=O)N[C@@H](CC(C)C)C(=O)N[C@@H](CO)C(=O)N1)C(=O)N1CCC[C@H]1C(=O)N[C@@H](Cc1ccccc1)C(=O)O | 102% | 75% | 100% | – | pEC50 [15]: 7.20
17 | CCCC[C@H](NC(=O)[C@@H]1CCCN1C(=O)CNC(=O)[C@H](CCCCN)NC(=O)[C@@H]1CCN(C)C/C=C/C[C@H](NC(=O)[C@H](CCCNC(=N)N)NC(=O)[C@@H]2CCC(=O)N2)C(=O)N[C@@H](CCCNC(=N)N)C(=O)N[C@@H](CC(C)C)C(=O)N[C@@H](CO)C(=O)N1)C(=O)N1CCC[C@H]1C(=O)N[C@@H](Cc1ccccc1)C(=O)O | 102% | 90% | 97% | – | –
18 | C=CC[C@H](NC(=O)[C@H](CO)NC(=O)[C@H](CC(C)C)NC(=O)[C@H](CCCNC(=N)N)NC(=O)[C@@H](N)CC=C)C(=O)N[C@@H](CCCCN)C(=O)NCC(=O)N1CCC[C@H]1C(=O)N[C@@H](CCCC)C(=O)N1CCC[C@H]1C(=O)N[C@@H](Cc1ccccc1)C(=O)O | – | – | – | 6.77 | half-life [5]: 6 min
19 | CCCC[C@H](NC(=O)[C@@H]1CCCN1C(=O)CNC(=O)[C@H](CCCCN)NC(=O)[C@@H]1CCNC/C=C/C[C@H](NC(=O)[C@H](CCCNC(=N)N)NC(=O)[C@@H]2CCC(=O)N2)C(=O)N[C@@H](CCCNC(=N)N)C(=O)N[C@@H](CC(C)C)C(=O)N[C@@H](CO)C(=O)N1)C(=O)N1CCC[C@H]1C(=O)N[C@@H](Cc1ccccc1)C(=O)O | 100% | 86% | 95% | – | –
20 | CCCC[C@H](NC(=O)[C@@H]1CCCN1C(=O)CNC(=O)[C@@H]1C/C=C\C[C@H](N)C(=O)N[C@@H](CCCNC(=N)N)C(=O)N[C@@H](CC(C)C)C(=O)N[C@@H](CO)C(=O)N1)C(=O)O (H-[AllylGly]RLS[AllylGly]GP[Nle]-OH; staple (Z) 1-5) | – | – | – | < 5.00 | –
